These results are taken from PubChem BioAssay AID766 (NMMLSC, 2007).

This assay addresses N-formyl peptide receptor 2 (Homo sapiens) (UniProt P25090). Briefly: human FPR2 ligand displacement potency – cell-based, flow cytometry, Ki from IC50, dose response (AID 766). Conditions: FPRL1-expressing cells, fluorescent ligand binding competition, binding constant from IC50. A general note: In flow cytometry, cells or beads pass a laser one at a time.

Molecules are shown by their SMILES. A value given as a limit tells only on which side of the number the result lay.

N-formyl peptide receptor 2 (Homo sapiens), sequence (P25090 whole entry, looked up): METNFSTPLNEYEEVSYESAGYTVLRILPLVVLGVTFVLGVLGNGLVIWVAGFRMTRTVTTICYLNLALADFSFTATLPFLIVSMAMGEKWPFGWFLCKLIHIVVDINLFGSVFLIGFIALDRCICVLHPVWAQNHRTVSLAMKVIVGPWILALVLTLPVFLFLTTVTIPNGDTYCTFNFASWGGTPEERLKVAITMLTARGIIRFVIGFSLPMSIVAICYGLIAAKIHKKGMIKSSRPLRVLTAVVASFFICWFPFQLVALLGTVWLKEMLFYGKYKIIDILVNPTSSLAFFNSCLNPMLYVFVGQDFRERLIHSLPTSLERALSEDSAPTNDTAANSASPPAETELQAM

By Ki is commonly meant the equilibrium dissociation constant of an inhibitor or competing ligand from its target. Low readings indicate tighter binding, high ones weaker binding. Take `COc1ccc(CC(=O)Nc2cc(-c3cn4cccnc4n3)ccc2OC)cc1`: the inhibition constant Ki came out at 6 µM. That is a single-digit micromolar value. To `COc1ccc(-c2cc(C(F)(F)F)nc(N3CCN(C(c4ccccc4)c4ccccc4)CC3)n2)cc1OC` belongs over 25.1 µM; to `COc1ccc(-c2cn3cccnc3n2)cc1NC(=O)C1CCCC1`, over 39.9 µM.

Consider `COc1ccc(-c2cc(C(F)(F)F)nc(N3CCN(Cc4ccccc4)CC3)n2)cc1OC`, for which the inhibition constant (Ki) is 10 µM.

With `COc1ccc(-c2cn3cccnc3n2)cc1NC(=O)C(C)C`, the inhibition constant (Ki) was found to be 2.2 µM. This Ki lies about 4.5-fold lower than the previous one. The figure for `O=C(N1CCN(c2nc(-c3ccccc3)c3ccccc3n2)CC1)C(F)(F)F` is over 34.7 µM; for `COc1ccc(-c2cn3cccnc3n2)cc1NC(=O)C1CC1` it is 4.1 µM; for `CCOC(=O)N1CCN(c2nc(-c3ccc(OC)c(OC)c3)cc(C(F)(F)F)n2)CC1` it is over 30.5 µM. The figure for `COc1ccc(-c2cc(C(F)(F)F)nc(N3CCN(c4ccccc4)CC3)n2)cc1OC` is over 30.2 µM; for `CCC(=O)Nc1cc(-c2cn3cccnc3n2)ccc1OC` it is 6.5 µM.
